The target in one experiment is T1, mouse OX1R (Mus musculus, UniProt P58307).
T1 construct: expressed in transfected cells; host or cells: HEK; cells from GNF, San Diego
T1 sequence (P58307 1-416): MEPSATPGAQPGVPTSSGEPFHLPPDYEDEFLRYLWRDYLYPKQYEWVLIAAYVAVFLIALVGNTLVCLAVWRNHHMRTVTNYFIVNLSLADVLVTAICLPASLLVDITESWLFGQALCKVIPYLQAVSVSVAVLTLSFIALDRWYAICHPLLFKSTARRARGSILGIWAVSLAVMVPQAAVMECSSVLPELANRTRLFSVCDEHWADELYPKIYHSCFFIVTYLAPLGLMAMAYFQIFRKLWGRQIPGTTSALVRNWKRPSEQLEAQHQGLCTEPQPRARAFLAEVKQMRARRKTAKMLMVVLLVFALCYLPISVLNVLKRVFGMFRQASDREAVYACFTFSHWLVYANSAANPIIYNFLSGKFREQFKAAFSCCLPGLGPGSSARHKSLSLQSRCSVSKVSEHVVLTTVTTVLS
The experiment is described as follows: FLIPR orexin A-stimulated calcium accumulation, mouse OX1R. The format is cell-based. The following applies: HEK cells. As to the method:
Chinese Hamster Ovary (CHO) cells stably transfected with the cDNA encoding the human OX1R (CHO-hOX1) or OX2R (CHO-hOX2) were used (kindly provided by T. Cremer and Dr. S. Geisse, NIBR Basel, Switzerland). For measurements of calcium accumulation using FLIPR® (Fluorescent Imaging Plate Reader) assay, CHO or Human Embryonic Kidney (HEK) cells stably expressing mouse, rat or human OX1R or OX2R (kindly provided by Dr. A. Chen, GNF, San Diego, CA, USA) were used. All cells were cultured in 1:1 Dulbecco's Modified Eagle's Medium (DMEM)/Ham's F12 Nutrients Mixture (F12) supplemented with 10% (v/v) fetal bovine serum (FBS), […] (100 μg/ml), Fungizone (250 μg/ml), and Geneticin (G418, […]). Cells were maintained in a humidified incubator at 37°C in 5% CO2. For crude cell membrane preparations, cells were washed and harvested in 10 mM HEPES (pH 7.5), and centrifuged at 4°C for 5 min at 2500 g. The cell pellet was either stored at −80°C or used directly.
Cells expressing either human, rat or mouse OX1R or OX2R were seeded at 8,000 cells/well in black 384 well clear bottom plates and incubated overnight at 37°C. The following day, medium was discarded and cells loaded with 50 μ l of 1 mM Fluo-4 AM (Invitrogen F14202) in dimethyl sulfoxide in working buffer (Hanks' balanced salt solution, 10 mM HEPES) and incubated for 60 min at 37°C. The loading buffer was removed and cells were washed with 100 μ l working buffer containing […], 0.1% BSA, and 2.5 mM Probenecid (pH 7.4) to remove the excess Fluo-4 AM. […] The assay plate was then transferred to the Molecular Devices-FLIPR384. The baseline calcium signal was recorded for 10 s, then the antagonist of interest was injected (10 μl at 3 times the final concentration) and the calcium signal recorded every second for 1 min, then every 2 s 40 times. Plates were then incubated at room temperature for 30 min, 1, 2, or 4 h.

Another experiment concerns REM sleep. Also noted: method as in Bettica et al., 2012b, 2012c. The following applies: 10, 30, or 60 mg; healthy volunteers and insomnia patients; ref Bettica et al., 2012b, 2012c; cited from earlier work.
The next experiment deals with OX2R. Kind of experiment: FLIPR calcium assay, OX2R, species not given. The format is cell-based. The following applies: species not stated. As to the method:
(§1) Determination of orexin A-stimulated calcium accumulation was performed over 2 days using FLIPR® (Fluorescent imaging plate reader from Molecular Devices-FLIPR384). Cells expressing either human, rat or mouse OX1R or OX2R were seeded at 8,000 cells/well in black 384 well clear bottom plates and incubated overnight at 37°C. The following day, medium was discarded and cells loaded with 50 μ l of 1 mM Fluo-4 AM (Invitrogen F14202) in dimethyl sulfoxide in working buffer (Hanks' balanced salt solution, 10 mM HEPES) and incubated for 60 min at 37°C. The loading buffer was removed and cells were washed with 100 μ l working buffer containing […], 0.1% BSA, and 2.5 mM Probenecid (pH 7.4) to remove the excess Fluo-4 AM. Working buffer was added and plates were incubated 10–15 min at room temperature. The assay plate was then transferred to the Molecular Devices-FLIPR384. The baseline calcium signal was recorded for 10 s, then the antagonist of interest was injected (10 μl at 3 times the final concentration) and the calcium signal recorded every second for 1 min, then every 2 s 40 times. Plates were then incubated at room temperature for 30 min, 1, 2, or 4 h.

A further experiment concerns OX1R. The experiment is described as follows: FLIPR calcium assay, OX1R, species not given. The following applies: species not stated. The format is cell-based. The procedure:
as §1

In the next experiment the test system is sleep wake cycle. Also noted: method as in Mang et al., 2012. The following applies: ref Mang et al., 2012, cited from earlier work.
The mark [1] stands for this setting: antagonist incubation 30 min, read-out: pKi (converted).
Setting [2] is: antagonist incubation 1 h, read-out: pKi (converted).
[3] abbreviates: antagonist incubation 2 h, read-out: pKi (converted).
The mark [4] stands for this setting: antagonist incubation 4 h, read-out: pKi (converted).
Where [5] appears, read: pKi, antagonist incubation 30 min.

Where two headings read alike, the source gives them in different places.

For the molecule `Cc1ccc(-c2ncccn2)c(C(=O)N2C[C@H](COc3ccc(F)cn3)CC[C@H]2C)c1` [Filorexant], the Ki was 5.25 nM on mouse OX1R (setting [1]), 4.07 nM on mouse OX1R (setting [2]), 6.61 nM on mouse OX1R (setting [3]) and 5.89 nM at mouse OX1R (setting [4]).
Consider `Cc1nc(C(=O)N2CCCC[C@H]2CNC(=O)c2cccc3occc23)c(-c2ccc(F)cc2)s1` [SB-649868], for which the REM duration result in the experiment with REM sleep is recorded as “increases REM duration”. In addition, the “latency to REM” value in the experiment on REM sleep is “decreases latency to REM”. Further, the Ki at mouse OX1R (setting [1]) is 0.158 nM; at mouse OX1R (setting [2]), 0.427 nM; at mouse OX1R (setting [3]) it was 0.0407 nM; at mouse OX1R (setting [4]), 0.0468 nM.
`COc1ccnc(N2CCC3(CCCN(Cc4c[nH]c5ccccc45)C3=O)CC2)n1` [IPSU, 2-((1H-Indol-3-yl)methyl)-9-(4-methoxypyrimidin-2-yl)-2,9-diazaspiro[5.5]undecan-1-one]: the “effect of incubation time on potency in calcium assay” value with OX2R and in the experiment on OX1R was “constant potency values irrespective of the incubation time” throughout. For the same molecule, the Ki is 331 nM at mouse OX1R (setting [1]), 490 nM at mouse OX1R (setting [2]), 288 nM on mouse OX1R (setting [3]) and 324 nM on mouse OX1R (setting [4]).
`CNC(=O)[C@@H](c1ccccc1)N1CCc2cc(OC)c(OC)cc2[C@@H]1CCc1ccc(C(F)(F)F)cc1` [Almorexant]: the effect on sleep result with sleep wake cycle (OX1R KO mice) is on record as “effective”. Besides, the “effect on the sleep wake cycle” value in the experiment with sleep wake cycle (OX2R KO mice) and with sleep wake cycle (double receptor KO mice) was “no effect on the sleep wake cycle” throughout. Moreover, the Ki is 18.6 nM on mouse OX1R (setting [5]); 23.4 nM on mouse OX1R (pKi, antagonist incubation 1 h); 33.9 nM at mouse OX1R (pKi, antagonist incubation 2 h); 38.9 nM at mouse OX1R (pKi, antagonist incubation 4 h).
Turning to `Cc1ccc(-n2nccn2)c(C(=O)N2CCN(c3nc4cc(Cl)ccc4o3)CC[C@H]2C)c1` [Suvorexant], the Ki at mouse OX1R (setting [5]) is 1.26 nM; on mouse OX1R (pKi, antagonist incubation 1 h), 1.05 nM; at mouse OX1R (pKi, antagonist incubation 2 h) it was 0.933 nM; on mouse OX1R (pKi, antagonist incubation 4 h), 1.02 nM.

(Values after PMC3847553, “Kinetic properties of “dual” orexin receptor antagonists at OX1R and OX2R orexin receptors” (Frontiers in Neuroscience, 2013).)
